Active and inactive are the calls of the source.
Assays:
[1] = A549 cell cytotoxicity, dose response, cytotoxicity control, plate reader, cherry-pick, antagonist series (AID 743412); format: functional, cell-based
[2] = inhibition of bursicon-driven LGR2 cAMP signaling – cell-based, HEK293, CRE-luciferase reporter, cherry pick, dose response (AID 743342); format: functional
[3] = viability loss in HEK293 cells – cell-based, plate reader, cherry-picked samples, cytotoxicity control, dose response (AID 743446); format: functional
[4] = target: T1, Disintegrin and metalloproteinase domain-containing protein 17 (Homo sapiens, UniProt P78536); assay: exosite inhibitors of ADAM17, dose response, biochemical (AID 743260)
T1 sequence (P78536 whole entry, the tested form may be a part): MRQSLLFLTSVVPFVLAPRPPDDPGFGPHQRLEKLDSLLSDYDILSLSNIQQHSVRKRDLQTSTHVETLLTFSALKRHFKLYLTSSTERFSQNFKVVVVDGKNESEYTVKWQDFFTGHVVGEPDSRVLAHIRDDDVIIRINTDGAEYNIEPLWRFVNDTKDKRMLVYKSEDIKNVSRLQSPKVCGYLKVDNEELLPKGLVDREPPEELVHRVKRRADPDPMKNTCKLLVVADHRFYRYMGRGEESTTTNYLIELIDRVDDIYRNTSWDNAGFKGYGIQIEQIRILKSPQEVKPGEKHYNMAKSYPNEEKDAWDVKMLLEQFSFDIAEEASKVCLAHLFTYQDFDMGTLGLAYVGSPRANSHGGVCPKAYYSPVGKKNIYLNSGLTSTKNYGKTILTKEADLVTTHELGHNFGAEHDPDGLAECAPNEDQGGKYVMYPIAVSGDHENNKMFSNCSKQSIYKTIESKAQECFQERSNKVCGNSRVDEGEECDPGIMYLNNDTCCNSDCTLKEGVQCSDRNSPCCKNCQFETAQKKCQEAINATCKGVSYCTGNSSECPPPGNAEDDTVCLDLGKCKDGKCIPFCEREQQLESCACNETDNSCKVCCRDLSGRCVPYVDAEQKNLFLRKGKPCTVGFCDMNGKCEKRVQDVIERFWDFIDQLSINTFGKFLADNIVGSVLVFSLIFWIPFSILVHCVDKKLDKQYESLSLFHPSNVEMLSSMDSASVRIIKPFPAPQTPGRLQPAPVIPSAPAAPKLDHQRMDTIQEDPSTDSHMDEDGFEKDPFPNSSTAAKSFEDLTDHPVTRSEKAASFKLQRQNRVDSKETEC

[5] = inhibition of ADAM10 peptide cleavage – biochemical, FRET peptide substrate, recombinant human ADAM10, selectivity assay for ADAM17 exosite inhibitor project, dose response (AID 743259);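 also: ADAM10 enzyme cleaving a FRET peptide substrate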
[6] = target: Fructose-bisphosphate aldolase (Mycobacterium tuberculosis, UniProt P9WQA3); assay: Fluorescence-based biochemical high throughput dose response assay for inhibitors of the fructose-bisphosphate aldolase (FBA) of M. tuberculosis.; format: functional
Chain of Fructose-bisphosphate aldolase (P9WQA3 whole entry): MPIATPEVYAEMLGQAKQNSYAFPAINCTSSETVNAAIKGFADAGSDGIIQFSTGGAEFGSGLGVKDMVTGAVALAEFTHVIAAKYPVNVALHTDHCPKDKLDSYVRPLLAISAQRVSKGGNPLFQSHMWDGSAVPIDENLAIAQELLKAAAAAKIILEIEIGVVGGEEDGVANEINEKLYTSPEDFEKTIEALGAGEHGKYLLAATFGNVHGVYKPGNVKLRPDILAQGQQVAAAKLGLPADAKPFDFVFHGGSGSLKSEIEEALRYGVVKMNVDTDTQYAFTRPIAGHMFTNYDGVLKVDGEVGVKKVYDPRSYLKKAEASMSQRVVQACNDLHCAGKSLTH

[7] = test system: HT-1080; assay: HT1080 cell viability loss – fluorescence readout (AID 620); format: functional, cell-based; details: Homo sapiens
[8] = target: Luciferin 4-monooxygenase (Photinus pyralis, UniProt P08659); assay: Counter Screen for Luciferase-based Assay Positives. [Related pubchem assays: 620, 618, 411 ]
[9] = potency of ADAM10 substrate cleavage blockers – biochemical, QFRET, dose response (AID 743254);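 also: ADAM10 enzyme with the DM2 quenched FRET peptide as substrate; EDANS fluorescence gain as the protease cuts the substrate; inhibitor potency against ADAM10 proteolytic activity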
[10] = target: Voltage-dependent T-type calcium channel subunit alpha-1H (Homo sapiens, UniProt O95180); format: functional;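 also: channel activity triggered by adding a high calcium stimulation buffer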
Chain of Voltage-dependent T-type calcium channel subunit alpha-1H (O95180 whole entry): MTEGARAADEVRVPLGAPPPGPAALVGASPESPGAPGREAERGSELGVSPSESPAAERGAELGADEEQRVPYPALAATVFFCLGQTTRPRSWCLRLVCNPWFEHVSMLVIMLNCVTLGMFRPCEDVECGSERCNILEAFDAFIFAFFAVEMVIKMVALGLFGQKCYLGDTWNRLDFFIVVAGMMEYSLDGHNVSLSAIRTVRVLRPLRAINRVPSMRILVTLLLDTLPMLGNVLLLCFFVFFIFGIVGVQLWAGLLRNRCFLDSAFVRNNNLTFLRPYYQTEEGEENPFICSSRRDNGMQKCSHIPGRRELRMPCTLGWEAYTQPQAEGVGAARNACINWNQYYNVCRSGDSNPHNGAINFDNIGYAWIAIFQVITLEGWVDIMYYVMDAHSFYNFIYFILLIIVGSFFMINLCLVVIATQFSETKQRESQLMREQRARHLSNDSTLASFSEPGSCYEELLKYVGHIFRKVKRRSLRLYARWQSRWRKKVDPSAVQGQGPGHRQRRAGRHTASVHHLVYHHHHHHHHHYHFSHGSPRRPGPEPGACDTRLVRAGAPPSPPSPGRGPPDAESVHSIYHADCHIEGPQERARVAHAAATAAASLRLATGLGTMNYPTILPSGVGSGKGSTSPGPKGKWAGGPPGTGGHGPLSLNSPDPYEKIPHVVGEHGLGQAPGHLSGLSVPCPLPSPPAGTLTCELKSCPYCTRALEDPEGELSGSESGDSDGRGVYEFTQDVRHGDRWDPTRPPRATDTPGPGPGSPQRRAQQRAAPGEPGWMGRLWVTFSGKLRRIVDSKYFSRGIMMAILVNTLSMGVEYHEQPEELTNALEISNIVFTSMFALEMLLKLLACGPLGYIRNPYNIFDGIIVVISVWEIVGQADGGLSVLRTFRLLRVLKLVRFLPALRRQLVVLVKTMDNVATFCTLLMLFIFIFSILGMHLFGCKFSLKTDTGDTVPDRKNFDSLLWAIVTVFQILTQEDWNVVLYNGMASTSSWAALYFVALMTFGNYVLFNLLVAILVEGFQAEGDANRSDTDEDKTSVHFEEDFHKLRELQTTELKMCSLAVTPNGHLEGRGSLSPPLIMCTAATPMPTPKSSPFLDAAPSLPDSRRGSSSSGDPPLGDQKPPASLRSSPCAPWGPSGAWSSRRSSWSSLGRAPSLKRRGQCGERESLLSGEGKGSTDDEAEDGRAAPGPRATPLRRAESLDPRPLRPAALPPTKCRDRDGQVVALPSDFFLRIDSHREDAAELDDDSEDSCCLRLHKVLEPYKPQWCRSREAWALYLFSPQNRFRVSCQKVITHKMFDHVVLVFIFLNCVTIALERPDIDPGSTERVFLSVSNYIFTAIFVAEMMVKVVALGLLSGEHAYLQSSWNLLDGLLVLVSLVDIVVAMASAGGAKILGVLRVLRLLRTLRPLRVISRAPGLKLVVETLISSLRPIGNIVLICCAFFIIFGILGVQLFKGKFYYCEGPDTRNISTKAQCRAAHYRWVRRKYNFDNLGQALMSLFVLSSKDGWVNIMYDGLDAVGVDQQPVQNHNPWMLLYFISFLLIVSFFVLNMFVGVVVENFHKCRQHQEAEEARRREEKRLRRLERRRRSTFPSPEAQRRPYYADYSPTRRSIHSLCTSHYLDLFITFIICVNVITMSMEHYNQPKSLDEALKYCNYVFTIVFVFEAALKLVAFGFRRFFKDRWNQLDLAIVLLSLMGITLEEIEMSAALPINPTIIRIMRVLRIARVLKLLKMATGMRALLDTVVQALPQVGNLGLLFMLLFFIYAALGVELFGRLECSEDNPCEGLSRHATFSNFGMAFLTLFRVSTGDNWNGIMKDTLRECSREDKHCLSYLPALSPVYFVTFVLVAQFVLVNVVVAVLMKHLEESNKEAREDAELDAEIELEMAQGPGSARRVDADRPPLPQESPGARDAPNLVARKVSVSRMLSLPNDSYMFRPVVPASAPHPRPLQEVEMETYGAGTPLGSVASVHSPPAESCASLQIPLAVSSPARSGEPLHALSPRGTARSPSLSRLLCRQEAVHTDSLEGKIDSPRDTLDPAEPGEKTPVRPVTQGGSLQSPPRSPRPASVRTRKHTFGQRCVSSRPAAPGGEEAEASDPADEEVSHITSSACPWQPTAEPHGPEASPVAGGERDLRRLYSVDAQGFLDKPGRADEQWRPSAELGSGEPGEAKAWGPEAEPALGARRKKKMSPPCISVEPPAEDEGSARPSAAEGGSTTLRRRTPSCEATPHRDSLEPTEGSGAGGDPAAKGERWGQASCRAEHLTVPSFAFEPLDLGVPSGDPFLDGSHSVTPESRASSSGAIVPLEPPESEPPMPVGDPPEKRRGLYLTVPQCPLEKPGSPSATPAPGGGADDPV

[11] = NIH3T3 cell viability loss – ATP luminescence, mouse fibroblasts, counter-screen, dose response (AID 2010); format: functional, cell-based;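 also: cells exposed to compound for about 90 hours before reading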
[12] = Trypanosoma cruzi growth suppression in host cells – NIH3T3 host cells, beta-gal luminescence, confirmation (AID 2044); format: functional, cell-based;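 also: intracellular parasites grown in NIH/3T3 mouse fibroblasts as host cells; luminescent beta-galactosidase reporter signal from transgenic T. cruzi replicating inside host cells; inhibitors lower the luminescence signal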
[13] = target: T1, Disintegrin and metalloproteinase domain-containing protein 17; assay: inhibition of ADAM17 substrate cleavage – biochemical, quenched FRET substrate, counter-screen for ADAM10 exosite inhibitor project, dose response (AID 743253)
[14] = target: T2, Beta-lactamase (Pseudomonas aeruginosa, UniProt Q79MP6); assay: […] counterscreen for selective VIM-2 inhibitors: dose response biochemical high throughput screening assay to identify inhibitors of IMP-1 metallo-beta-lactamase.
T2 sequence (Q79MP6 whole entry): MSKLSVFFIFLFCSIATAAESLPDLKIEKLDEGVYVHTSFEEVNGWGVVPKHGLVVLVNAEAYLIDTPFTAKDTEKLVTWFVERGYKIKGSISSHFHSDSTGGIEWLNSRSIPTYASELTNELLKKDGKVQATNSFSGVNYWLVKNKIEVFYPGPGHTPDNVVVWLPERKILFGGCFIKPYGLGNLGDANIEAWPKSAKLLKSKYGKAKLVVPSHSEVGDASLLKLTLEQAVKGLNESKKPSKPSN

[15] = target: T2, Beta-lactamase; assay: inhibition of IMP-1 beta-lactamase activity – biochemical, epi-absorbance, selectivity assay for VIM-2 inhibitor project, dose response (AID 1920)
[16] = target: Beta-lactamase (Salmonella choleraesuis (strain SC-B67), UniProt Q5J463); assay: Epi-absorbance-based counterscreen for selective VIM-2 inhibitors: dose response biochemical high throughput screening assay to identify inhibitors of TEM-1 serine-beta-lactamase.
Chain of Beta-lactamase (Salmonella choleraesuis (strain SC-B67), UniProt Q5J463) (Q5J463 whole entry, the tested form may be a part): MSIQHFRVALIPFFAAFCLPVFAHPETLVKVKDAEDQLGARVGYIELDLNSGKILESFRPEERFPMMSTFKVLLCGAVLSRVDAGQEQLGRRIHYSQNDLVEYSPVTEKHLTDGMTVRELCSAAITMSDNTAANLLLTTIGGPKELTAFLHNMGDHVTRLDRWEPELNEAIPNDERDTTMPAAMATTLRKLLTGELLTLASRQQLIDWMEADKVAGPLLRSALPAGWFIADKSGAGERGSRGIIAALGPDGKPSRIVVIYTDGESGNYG

[17] = target: T3, Carboxy-terminal domain RNA polymerase II polypeptide A small phosphatase 1 (Homo sapiens, UniProt Q9GZU7); assay: CTDSP1 inhibitors, concentration-response, biochemical, absorbance readout, ultra-high-throughput screen actives (AID 540297); format: functional
T3 sequence (Q9GZU7 whole entry): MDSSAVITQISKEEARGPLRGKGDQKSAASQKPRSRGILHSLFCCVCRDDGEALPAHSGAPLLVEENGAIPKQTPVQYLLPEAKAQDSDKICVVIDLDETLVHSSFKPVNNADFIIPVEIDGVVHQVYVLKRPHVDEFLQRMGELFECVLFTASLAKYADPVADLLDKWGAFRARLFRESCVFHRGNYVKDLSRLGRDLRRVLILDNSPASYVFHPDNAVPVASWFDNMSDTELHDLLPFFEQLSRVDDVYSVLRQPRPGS

[18] = target: T4, Small ubiquitin-related modifier 1 (Homo sapiens, UniProt P63165); assay: SUMO1 protein interaction blockers, potency – biochemical, fluorescence polarization, uHTS hits, dose response (AID 624382); format: functional; details: read-out: IC50_Mean
T4 sequence (P63165 whole entry): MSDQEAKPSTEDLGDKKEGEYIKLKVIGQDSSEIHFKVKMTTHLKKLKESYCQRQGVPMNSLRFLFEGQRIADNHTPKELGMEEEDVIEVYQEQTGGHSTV

[19] = target: Bcl-2-like protein 1 (Homo sapiens, UniProt Q07817); assay: blockers of BCLXL peptide binding – biochemical, fluorescence polarization, 1536-well, selectivity assay for MCL1 inhibitor project, dose response (AID 2218)
Chain of Bcl-2-like protein 1 (Q07817 whole entry): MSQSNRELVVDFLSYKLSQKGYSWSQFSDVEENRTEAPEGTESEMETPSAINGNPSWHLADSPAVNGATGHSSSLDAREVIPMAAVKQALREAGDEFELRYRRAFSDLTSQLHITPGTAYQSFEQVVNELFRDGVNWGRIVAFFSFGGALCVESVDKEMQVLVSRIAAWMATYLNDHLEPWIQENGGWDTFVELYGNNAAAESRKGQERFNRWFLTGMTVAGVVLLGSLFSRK

[20] = target: T5, Tyrosine-protein phosphatase non-receptor type 7 (Homo sapiens, UniProt P35236); assay: HePTP tyrosine phosphatase activity blockers – biochemical, absorbance, leukemia target, primary screen (AID 521); format: functional
T5 sequence (P35236 whole entry): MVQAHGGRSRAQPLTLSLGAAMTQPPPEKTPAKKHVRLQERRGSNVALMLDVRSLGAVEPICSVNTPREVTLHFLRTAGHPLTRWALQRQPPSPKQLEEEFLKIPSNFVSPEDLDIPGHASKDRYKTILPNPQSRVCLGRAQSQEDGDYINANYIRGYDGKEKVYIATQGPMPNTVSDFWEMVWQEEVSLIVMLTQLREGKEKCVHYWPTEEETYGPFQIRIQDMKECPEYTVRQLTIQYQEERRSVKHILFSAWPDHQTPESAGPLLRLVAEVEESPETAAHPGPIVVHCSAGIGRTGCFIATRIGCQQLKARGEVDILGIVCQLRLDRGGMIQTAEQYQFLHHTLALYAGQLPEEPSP

[21] = target: T4, Small ubiquitin-related modifier 1; assay: SUMO1 protein-protein binding blockers, potency – biochemical, FRET, dose response (AID 624383); format: functional; details: read-out: IC50_Mean
[22] = target: T6, Induced myeloid leukemia cell differentiation protein Mcl-1 (Homo sapiens, UniProt Q07820); format: functional
T6 sequence (Q07820 whole entry): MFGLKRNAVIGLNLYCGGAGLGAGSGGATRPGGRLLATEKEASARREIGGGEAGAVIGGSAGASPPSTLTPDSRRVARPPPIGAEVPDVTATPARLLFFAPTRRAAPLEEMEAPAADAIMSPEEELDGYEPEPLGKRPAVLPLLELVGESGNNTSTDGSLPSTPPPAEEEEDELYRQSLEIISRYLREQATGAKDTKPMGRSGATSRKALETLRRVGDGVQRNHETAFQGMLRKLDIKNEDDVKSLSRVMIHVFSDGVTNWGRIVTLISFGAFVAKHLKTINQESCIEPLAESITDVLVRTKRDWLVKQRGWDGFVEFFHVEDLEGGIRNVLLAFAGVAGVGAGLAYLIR

[23] = target: T6, Induced myeloid leukemia cell differentiation protein Mcl-1; assay: blockers of MCL1 binding to BIM peptide – biochemical, fluorescence polarization, BIM-BH3 peptide, 1536-well, dose response (AID 2217)
[24] = target: Tyrosyl-DNA phosphodiesterase 2 (Homo sapiens, UniProt O95551); assay: potency against TDP2 phosphodiesterase activity – biochemical, epi absorbance, IC50, dose response (AID 743297)
[25] = T. cruzi growth inhibition in host cells, dose response, cell-based, plate reader, dry powder, set 2 (AID 652275); format: functional

C[C@H](CO)N1C[C@H](C)[C@H](CN(C)C(=O)Nc2ccc(C(F)(F)F)cc2)OCCCC[C@H](C)Oc2ccc(NC(=O)CCC(F)(F)F)cc2C1=O
AC50 [1]: 35.6 µM (active) | AC50 [2]: 1.29 µM (active) | AC50 [3]: 32.9 µM (active)

COc1ccc(NC(=O)N(C)C[C@@H]2OCCCC[C@H](C)Oc3ccc(NC(=O)NC4CCCCC4)cc3C(=O)N([C@H](C)CO)C[C@@H]2C)cc1
AC50 [2]: 18.2 µM (active)

COc1ccc(Cn2cc(CN3CCS(=O)(=O)N(Cc4ccc(-c5cccc(Cl)c5)cc4)C(C)C3=O)nn2)cc1 (stereo unspecified)
IC50 [4]: > 69.5 µM (inactive) | IC50 [5]: > 69.5 µM (inactive)

Cc1ccc2nc(-c3cccc(N)c3)oc2c1
IC50 [6]: 0.588 µM (active) | EC50 [7]: > 50 µM (not active) | EC50 [8]: 9.87 µM (active)

Cc1cccc2cc(CN(Cc3ccco3)C(=O)Nc3cccc(C#N)c3)c(Cl)nc12
IC50 [9]: > 69.5 µM (inactive) | EC50 [10]: 6.15 µM (active) | EC50 [11]: 26.5 µM (active) | EC50 [12]: 1.94 µM (active) | IC50 [13]: > 69.5 µM (inactive)

Cc1cc(=O)oc2c3c(cc(OCC(=O)N4CCC[C@H]4C(=O)O)c12)OC(C)(C)CC3
IC50 [14]: > 59.6 µM (inactive) | IC50 [15]: > 59.6 µM (inactive) | IC50 [16]: > 59.6 µM (inactive)

Cn1cnnc1SCC(=O)Nc1sc2c(c1C(N)=O)CCC2
IC50 [17]: 2.77 µM (active) | IC50 [18]: > 66.6 µM (inactive) | IC50 [19]: > 36.3 µM (not active) | IC50 [20]: 2.43 µM (active) | IC50 [21]: 13.7 µM (active) | IC50 [22]: 3.16 µM (active) | IC50 [23]: 8.58 µM (active)

COc1ccc(-c2[nH]nc(O)c2NC(=O)c2ccc(C)cc2)cc1
IC50 [24]: > 128 µM (inactive)

CCOC(=O)c1cc2c(c(-c3cccc(C#CCN(C)C)c3)n1)[C@@H](CCO)N([S+]([O-])C(C)(C)C)C2 (stereo partly specified)
AC50 [25]: 16.2 µM (active)
